Consider three compounds from patent US20220354998A1, “HYDROGEL-FILLED MICRONEEDLE ARRAYS AND USES THEREOF” (University of Connecticut, priority 2021, published 2022).

Series [1] is described as follows: Dual-drug release from multi-length MNA into two-gel skin model. Format: physicochemical. As to conditions: 1% alginate, 16 h. The protocol: Evaluation of Dual-Drug Release Capability. For the dual release, MNAs with 4.2 mm long and 2 mm short needles were separately loaded with a 1% (m/v) alginate solution in DPBS containing ˜46 μg/mL of Rh-B, ˜1010 μg/mL of BSA-FITC, or no added analyte. Four combinations of analyte-loaded alginate MNAs were tested: (1) long needles loaded with Rh-B and short needles loaded with BSA-FITC (Rh-B/FITC), (2) long needles loaded with Rh-B and short needles blank (Rh-B/Blank), (3) long needles blank and short needles loaded with BSA-FITC (Blank/FITC), and (4) both lengths blank (Blank/Blank). The gels were crosslinked as previously mentioned and ran in quintuplicate. The needles were inserted into a two-gel skin model that include a 2 mm thick 3% (m/v) low-gelling agarose cast on top of a 3 mm thick 10% (m/v) porcine gelatin in 12 well plates. Both solutions were prepared in PBS. […] The collected gels were melted and the amount of Rh-B and BSA-FITC was quantified using a BioTek Cytation 5 plate reader at an excitation/emission of 546/568 and 495/520 nm, respectively.
An additional release experiment was conducted to evaluate the performance of the MNA at the dual-delivery of drugs. […] Following the release, the gel layers were separated, melted, and read in a plate reader for their Rh-B and BSA-FITC content. […] The measured release results are quantified in FIG. 5C, FIG. 5D, and FIG. 13. […]

Series [2] relates to Human umbilical vein endothelial cells (HUVECs). The experiment in a line: In vitro scratch assay on cultured HUVECs. Format: cell-based. The protocol:
In Vitro Scratch Assay. Human umbilical vein endothelial cells (HUVECs) (Sigma-Aldrich) were cultured in EGM™ Endothelial Cell Growth Medium BulletKit™ (Lonza) complete medium. At their fifth passage, the HUVECs were detached using trypsin-EDTA (0.1% w/v), resuspended in the growth medium, and seeded at a concentration of 50,000 cells per well into a 12-well tissue culture plate that was coated with a thin layer of Geltrex® hESC-Qualified, Ready-To-Use, Reduced Growth Factor Basement Membrane Matrix (Gibco®). The Geltrex® layer was formed by diluting by a factor of 2 in the basal endothelial medium and seeding in empty wells. […]
A scratch was created in the confluent HUVECs by lightly dragging a P200 pipette tip across the bottom of the well. […] The concentration of VEGF in the MNA+VEGF group was calculated so that if total VEGF release occurred, the concentration of VEGF in the well would match the concentration of the positive control (50 ng/mL). […] The area of scratch closure for each time point was calculated using ImageJ (NIH, Bethesda, Md.) and compared for relative area change to 0 h.
The ability of the platform to preserve the bioactivity of encapsulated therapeutics was assessed by loading vascular endothelial growth factor (VEGF), an important angiogenic factor. […] Three different groups were evaluated: MNA−VEGF, MNA+VEGF, and a positive control. […]

Regarding `CCN(CC)c1ccc2c(-c3ccccc3C(=O)O)c3ccc(=[N+](CC)CC)cc-3oc2c1.[Cl-]` [Rh-B, Rhodamine B], the “Rh-B signal by gel layer” value in series [1] (long needles (4.2 mm)) is “stronger in the gelatin”. Turning to “vascular endothelial growth factor [VEGF]”, the “healing potential (gap closure)” value in series [2] (after 8 h of culture, HUVEC scratch, n=4) is recorded as “cells nearly closed the gap in its entirety”. The “effect on HUVEC migration” value in series [2] (scratch assay) is “positive effect”.

With “BSA fluorescein isothiocyanate conjugate [BSA-FITC]”, the “BSA-FITC signal by gel layer” value in series [1] (short needles (2 mm)) is given as “greater BSA-FITC signal in the top, agarose layer”.
